Measured values taken from ChEMBL document CHEMBL1158611, “Trichoderins, novel aminolipopeptides from a marine sponge-derived Trichoderma sp., are active against dormant mycobacteria” (2010).
Values after ≈ are worked out from the molar mass of the structure shown. *1 amine or outer side, *2 acyl side, *3 side chain or, on linkers, in order; H or OH if unused. Where a SMILES comes first, the peptide text is derived from it. [ ]: non-standard residue; d: D form. The star is where a group is joined. X2 = CCC(=O)C[C@@H](O)C[C@@H](C)C[C@H](N[*:1])C(=O)[*:2]; X1 = CCC(=O)/C=C/C[C@@H](C)C[C@H](N[*:1])C(=O)[*:2]; Alaψ(CH2NMeCH2CH2OH) = C[C@@H](CN(C)CCO)N*; Decanoyl(2R-Me) = CCCCCCCC[C@@H](C)C(=O)*; Aib = CC(C)(N)C(=O)O

Assays:
[1] = system: Mycobacterium tuberculosis; test: Antimycobacterial activity against Mycobacterium bovis BCG under aerobic condition; format: functional; conditions: variant bovis BCG
[2] = system: Mycobacterium tuberculosis; test: Antimycobacterial activity against Mycobacterium bovis BCG under dormancy-inducing hypoxic condition; format: functional; conditions: variant bovis BCG

SMILES | MIC [1] [µg/mL] | MIC [2] [µg/mL]
NNC(=O)c1ccncc1 [ISONIAZID] | 0.03 (≈ 0.219 µM) | > 100
CCCCCCCC[C@@H](C)C(=O)N1CCC[C@H]1C(=O)N[C@@H](C[C@H](C)C[C@H](O)CC(=O)CC)C(=O)NC(C)(C)C(=O)NC(C)(C)C(=O)N[C@H](C(=O)N[C@H](C(=O)NC(C)(C)C(=O)NC(C)(C)C(=O)N[C@@H](C)CN(C)CCO)C(C)C)[C@@H](C)CC [TRICHODERIN A] ({Decanoyl(2R-Me)}-P[X2][Aib][Aib]IV[Aib][Aib]-{Alaψ(CH2NMeCH2CH2OH)}) | 0.02 (≈ 0.0172 µM) | 0.02 (≈ 0.0172 µM)
CCCCCCCC[C@@H](C)C(=O)N1CCC[C@H]1C(=O)N[C@@H](C[C@H](C)C/C=C/C(=O)CC)C(=O)NC(C)(C)C(=O)NC(C)(C)C(=O)N[C@H](C(=O)N[C@H](C(=O)NC(C)(C)C(=O)NC(C)(C)C(=O)N[C@@H](C)CN(C)CCO)C(C)C)[C@@H](C)CC [TRICHODERIN A1] ({Decanoyl(2R-Me)}-P[X1][Aib][Aib]IV[Aib][Aib]-{Alaψ(CH2NMeCH2CH2OH)}) | 0.16 (≈ 0.14 µM) | 0.16 (≈ 0.14 µM)
CCCCCCCC[C@@H](C)C(=O)N1CCC[C@H]1C(=O)N[C@@H](C[C@H](C)C[C@H](O)CC(=O)CC)C(=O)NC(C)(C)C(=O)NC(C)(C)C(=O)N[C@H](C(=O)N[C@H](C(=O)NC(C)(C)C(=O)NC(C)(C)C(=O)N[C@@H](C)CN(C)CCO)C(C)C)C(C)C [TRICHODERIN B] ({Decanoyl(2R-Me)}-P[X2][Aib][Aib]VV[Aib][Aib]-{Alaψ(CH2NMeCH2CH2OH)}) | 0.02 (≈ 0.0174 µM) | 0.02 (≈ 0.0174 µM)
